Values quoted from earlier work as cited in patent US20050272741A1, “Novel methods of treatment for Fontan patients with protein losing enteropathy” (priority 2004, published 2005).

Tested on: mesenteric bed
Conditions: pretreatment with Viagra, high dose Norepinephrine

CCCc1nn(C)c2c(=O)[nH]c(-c3cc(S(=O)(=O)N4CCN(C)CC4)ccc3OCC)nc12 [Viagra, Sildenafil]
Mesenteric relaxation / constriction of the mesenteric bed: even high dose Norepinephrine fails to constrict the mesenteric bed
